According to publication PMC7449217, “The FDA-Approved Drug Nelfinavir Inhibits Lytic Cell-Free but Not Cell-Associated Nonlytic Transmission of Human Adenovirus” (Antimicrobial Agents and Chemotherapy, 2020):
Counter-ions that a name gives are not always drawn.

Assays:
Type in all cases: cell-based, human adenovirus
[1] = tested on: HAdV-B35-pIX-FS2A-GFP; assay: fluorescence-based plaque-forming assay, A549 cells
Protocol: (§1) Per 96-well plate, 15,000 A549 cells, 10,000 HeLa cells, 30,000 HBECs, 30,000 HCE cells, or 30,000 CMT-93 cells were seeded in 100 μl of the respective supplemented medium and allowed to settle for 1 h at room temperature (RT) prior to cell culture incubation at 37°C with 5% CO2 and 95% humidity. The following day, the medium was replaced with 50 μl of the respective virus stock dilution giving rise to 5 to 50 plaques per 96-well plate. Fifty microliters of nelfinavir to obtain a 0.1 to 50 μM final concentration or the DMSO solvent control was also added, both in supplemented medium. For each experiment, a noninfected, treated control was performed. For uphill plaque assays, the medium volume was increased to 150 μl with identical virus and drug concentrations. For wash-in/washout experiments, the virus was incubated on cells in supplemented medium for 1 h at 37°C, cells were washed with PBS, and a 100-μl drug dilution in supplemented medium was added. All experiments were performed in four technical replicates or as indicated. Cells were incubated under standard cell culture conditions. At the indicated times postinfection, the cells were fixed, and the nuclei were stained for 1 h at RT by the addition of 33 μl 16% (wt/vol) paraformaldehyde (PFA) and 4 μg/ml Hoechst 33342 (Sigma-Aldrich, St. Louis, MO, USA) in PBS. Cells were washed three times with PBS and stored in PBS supplemented with 0.02% N3 for infections with viruses harboring a GFP transgene. For wild-type (wt) viruses, cells were quenched in PBS supplemented with 50 mM NH4Cl, permeabilized using 0.2% (vol/vol) Triton X-100 in PBS, and blocked with 0.5% (wt/vol) bovine serum albumin (BSA) in PBS. Cells were incubated with 381.7 ng/ml mouse anti-HAdV hexon protein antibody (Mab8052; Sigma-Aldrich, St. Louis, MO, USA) and subsequently stained using 2 μg/ml goat anti-mouse-Alexa Fluor 594 (catalog number A21203 or A32742; Thermo Fisher Scientific, Waltham, MA, USA). Plates were imaged on either an IXM-XL or an IXM-C automated high-throughput fluorescence microscope (Molecular Devices, San Jose, CA, USA) using a 4× objective in wide-field mode. Hoechst staining was recorded in the 4′,6-diamidino-2-phenylindole (DAPI) channel, the fluorescein isothiocyanate (FITC)/GFP channel was acquired for viral GFP, and the tetramethyl rhodamine isothiocyanate (TRITC)/Texas Red channel was acquired for hexon immunofluorescence staining.
(§2) The infection phenotype for each well was quantified using Plaque2.0 ([101]). The number of plaques was determined based on the infection signal (viral GFP or hexon immunofluorescence staining). Nuclei stained with Hoechst were segmented by using CellProfiler ([178]). Infected nuclei were classified based on the median infection signal per nucleus in CellProfiler. Data were plotted, and the EC50 (infected and treated cells), the TC50 (noninfected, treated cells), as well as the corresponding standard errors (SE) were determined using curve fitting in GraphPad (version 8.1.2; GraphPad Software, Inc.) using three-parameter inhibitor concentration-versus-response nonlinear regression. The mean TI50 was calculated as the […] ratio of the means. The TI50 SE was calculated by error propagation.

[2] = tested on: dl712 (HAdV-C5/2-dADP); assay: as above
Protocol: as §1, §2

[3] = tested on: HAdV-C1; assay: as above
Protocol: as §1, §2

[4] = tested on: HAdV-C6; assay: as above
Protocol: as §1, §2

[5] = tested on: HAdV-D37; assay: as above
Protocol: as §1, §2

[6] = tested on: HAdV-B21a; assay: as above
Protocol: as §1, §2

[7] = tested on: HAdV-C2; assay: as above
Protocol: as §1, §2

[8] = tested on: HAdV-C2-dE3B-GFP; assay: quantification of infectious progeny in the supernatant, titration on A549 cells; conditions: 1.25 μM, 7 dpi, HAdV-C2-dE3B-GFP-infected A549 cells
Protocol: A549 cells were seeded at 480,000 cells per 6-well plate in full DMEM and infected at 1,100 PFU HAdV-C2-dE3B-GFP per well the next day. Following 1 h of warm incubation, the supernatant was removed, and cells were washed with PBS and detached by trypsin digestion. Infected cells were centrifuged and resuspended in fresh medium to remove any unbound input virus and seeded at 180,000 cells/12-well plate in medium supplemented with 1.25, 3, or 10 μM nelfinavir or equivalent amounts of the DMSO solvent control. At the indicated times postinfection, the supernatant was harvested and cleared by centrifugation. Two hundred microliters of PBS/well was added to the infected monolayer. Cells were disrupted by three freeze-thaw cycles, and freon extraction was performed. The supernatant and cell lysate were stored at 4°C until titration on naive A549 cells. PFA-fixed, Hoechst-stained cells were imaged at 44 hpi using a 4× objective (NA, 0.20) on an IXM-XL epifluorescence microscope (Molecular Devices, San Jose, CA, USA). GFP-positive infected cells were classified based on the median nuclear GFP intensity using automated image analysis by CellProfiler ([178]).
Four hundred eighty thousand A549 cells were seeded per 6-well dish, inoculated with 1,100 PFU HAdV-C2-dE3B-GFP/well for 1 h at 37°C, washed with PBS, and detached by trypsin digestion. […]

Cc1c(O)cccc1C(=O)N[C@@H](CSc1ccccc1)[C@H](O)CN1C[C@H]2CCCC[C@H]2C[C@H]1C(=O)NC(C)(C)C [Nelfinavir, Nelfinavir mesylate]
TI50 (TC50/IC50) ([1]; HAdV-B35-pIX-FS2A-GFP in A549, 4 dpi, Hexon): 6.13 | EC50 ([1]; Human adenovirus sp., A549): 2490 nM | EC50 ([2]; Human adenovirus sp., A549): 6870 nM | TI50 (TC50/IC50) ([2]; dl712 (HAdV-C5/2-dADP) in A549, 5 dpi, Hexon): 2.18 | TI50 (TC50/IC50) ([3]; HAdV-C1 in A549, 4 dpi, Hexon): 12.22 | EC50 ([3]; Human adenovirus sp., HAdV-C1 in A549, fixation 4 dpi, read-out Hexon, plaque numbers): 1940 nM | TI50 (TC50/IC50) ([4]; HAdV-C6 in A549, 3 dpi, Hexon): 35.14 | EC50 ([4]; Human adenovirus sp., HAdV-C6 in A549, fixation 3 dpi, read-out Hexon, plaque numbers): 600 nM | TI50 (TC50/IC50) ([5]; HAdV-D37 in A549, 5 dpi, Hexon): 1.29 | EC50 ([5]; Human adenovirus sp., HAdV-D37 in A549, fixation 5 dpi, read-out Hexon, plaque numbers): 16700 nM | TI50 (TC50/IC50) ([6]; HAdV-B21a in A549, 4 dpi, Hexon): 1.27 | EC50 ([6]; Human adenovirus sp., HAdV-B21a in A549, fixation 4 dpi, read-out Hexon, plaque numbers): 16000 nM | TI50 (TC50/IC50) ([7]; HAdV-C2 in A549, 4 dpi, Hexon): 71.09 | EC50 ([7]; Human adenovirus sp., HAdV-C2 in A549, fixation 4 dpi, read-out Hexon, plaque numbers): 240 nM | reduction of total yield of infectious particles in the supernatant [8]: 3 orders of magnitude
